Assay results as given in patent US20210393745A1, “OLIGOMER EXTENDED INSULIN-FC CONJUGATES AND THEIR MEDICAL USE” (Novo Nordisk A/S, priority 2018, published 2021).

Tests used:
[1] = tested on: normal Sprague-Dawley rats; experiment: In vivo PD, blood glucose lowering in normal rats; parameters: species or system Sprague-Dawley rat; conditions: s.c. 30 nmol/kg, baseline corrected BG up to 10 days, difference from vehicle, mean
Method: Insulin-Fc conjugates were tested in vivo by subcutaneous (s.c.) administration to normal and streptozotocin (STZ) treated male Sprague-Dawley (SD) rats.
The rats were dosed s.c. in the neck region with a dose of 30 nmol/kg of the insulin-Fc conjugates. Blood samples for blood glucose and plasma insulin analysis were collected from the tongue vein up to 10 days post dosing. The insulin-Fc concentrations were measured by immuno-assay (LLOQ=1000 pM) and the resulting half-life values after s.c. dosing are shown in Table 4. The PK profiles for normal rats are shown in FIG. 3 and for streptozotocin treated rats in FIG. 6. Blood glucose (BG) was measured using Biosen S Line (EKF) and the BG and baseline corrected BG profiles for normal rats are shown in FIGS. 1 and 2 and for streptozotocin treated rats in FIGS. 4 and 5 respectively.

primary rat adipocytes = experiment: Lipogenesis in rat adipocytes; assay type: cell-based; conditions: relative to human insulin
Method: As a measure of in vitro potency of the insulin conjugatess of the invention, lipogenesis can be used. Primary rat adipocytes are isolated from the epididymale fat pads and incubated with 3H-glucose in buffer containing e.g. 0.1% fat free HSA and either standard (human insulin, HI) or insulin conjugates of the invention. The labelled glucose is converted into extractable lipids in a dose dependent way, resulting in full dose response curves. The result is expressed as relative potency (%) with 95% confidence limits of insulin of the invention compared to standard (HI).

hFcRn ectodomain = target: T1, hFcRn ectodomain (Homo sapiens, UniProt P55899); experiment: SPR analysis of the binding of hFcRn ECD; conditions: pH 6.0, 25° C., steady-state fitting; read-out: Kn (μM), binding of hFcRn ECD
T1 construct: the hFcRn ectodomain diluted at 4000 nM with 2-fold serial dilutions was injected
Method: First, the three Insulin-Fc samples diluted at 10 ug/ml and the wild-type hIgG4 Fc (produced in HEK293 cells, i.e. glycosylated) diluted at 30 ug/ml in 10 mM sodium acetate (pH 4.5) (GE Healthcare, catalogue #BR100350) were immobilized on a CMD50L sensor chip (XanTec Bioanalytics GmbH) at spot 2 or 4 at 70-90 RU in each used flow cell via amine coupling with 1×HBS-EP+ (pH 7.4) (GE Healthcare, catalogue #BR-1006-69) used as the running buffer. The wild-type hIgG4 Fc was used as the control sample. In each used flow cell, spots 2, 3 and 4 were activated by 100 mM N-hydroxysuccinimide (NHS) and 400 mM N-ethyl-N′-dimethylaminopropyl carbodiimide hydrochloride (EDC) mixed at equal volume before the immobilization and blocked by 1 M ethanolamine hydrochloride-NaOH (pH 8.5) after the immobilization. NHS, EDC and ethanolamine were obtained from the Amine Coupling Kit, type 2 (GE Healthcare, catalogue #BR100633).
Next, the hFcRn ectodomain diluted at 4000 nM with 2-fold serial dilutions was injected through each used flow cell for 60 sec to allow for binding of the hFcRn ectodomain to the Insulin-Fc conjugates and wild-type hIgG4 Fc samples immobilized on the sensor chip, followed by dissociation for 180 sec. 1×PBS-EP+ (pH 6.0) was used as the dilution buffer for the hFcRn ectodomain and the running buffer in each binding cycle at the flow rate of 30 ul/min. After each binding cycle, the sensor chip was regenerated with a 60 sec injection of 1×PBS-EP+ (pH 7.4) at the flow rate of 30 ul/min. The 1×PBS-EP+ (pH 7.4) buffer was prepared by diluting 0.5 M EDTA (pH 8.0) (Invitrogen, catalogue #15575038) at 3 mM into 1×PBS-P+ (GE Healthcare, catalogue #28995084). The 1×PBS-EP+ (pH 6.0) buffer was prepared by adjusting the pH of the 1×PBS-EP+ buffer from 7.4 to 6.0 using ˜10 M HCl. The affinities (equilibrium dissociation constants, KD) were determined via steady-state fitting of the binding curves using the 1:1 binding model in Biacore 4000 Evaluation Software 1.0 (GE Healthcare).

[2] = target: T2, membrane-associated human IR-B (Homo sapiens, UniProt P06213); experiment: Insulin receptor affinity on membrane associated receptors (SPA), IR-B; assay type: binding; conditions: relative to human insulin
T2 construct: expressed in transfected cells; host or cells: BHK cells, pZem219B vector, plasma membrane preparation
Method: Membrane-associated human IR and IGF-1R are purified from BHK cells stably transfected with the pZem219B vector containing either the human IR-A, IR-B or IGF-IR insert. BHK cells are harvested and homogenized in ice-cold buffer (25 mM HEPES pH 7.4, 25 mM CaCl2 and 1 mM MgCl2, 250 mg/L bacitracin, 0.1 mM Pefablock). The homogenates are layered on a 41% (w/v) sucrose cushion and centrifuged for 75 minutes at 95000 g at 4° C. The plasma membranes are collected, diluted 1:5 with buffer (as above) and centrifuged again for 45 minutes at 40000 g at 4° C. The pellets are resuspended in a minimal volume of buffer and drawn through a needle (size 23) three times before storage at −80° C. until usage. The relative binding affinity for either of the membrane-associated human IR-A, IR-B or IGF-1R is determined by competition binding in a SPA setup. IR assays are performed in duplicate in 96-well OptiPlates (Perkin-Elmer Life Sciences). Membrane protein is incubated with gentle agitation for 150 minutes at 25° C. with 50 pM [^125IA14Y]-human insulin in a total volume of […] assay buffer (50 mM HEPES, 150 mM NaCl, 5 mM MgSO4, 0.01% Triton X-100, 0.1% (w/v) HSA (Sigma A1887), Complete EDTA-free protease inhibitors), 50 μg of wheat germ agglutinate (WGA)-coated PVT microspheres (GE Healthcare) and increasing concentrations of ligand. Assays are terminated by centrifugation of the plate at 2000 rpm for 2 minutes and bound radioactivity quantified by counting on a TopCount NXT (Perkin-Elmer Life Sciences).
IGF-1R assays are conducted essentially as for the IR binding assays except that membrane-associated IGF-1R and 50 pM [^125I-Tyr31]-human IGF-1 were employed.

T1 sequence (P55899 24-297 limits assumed): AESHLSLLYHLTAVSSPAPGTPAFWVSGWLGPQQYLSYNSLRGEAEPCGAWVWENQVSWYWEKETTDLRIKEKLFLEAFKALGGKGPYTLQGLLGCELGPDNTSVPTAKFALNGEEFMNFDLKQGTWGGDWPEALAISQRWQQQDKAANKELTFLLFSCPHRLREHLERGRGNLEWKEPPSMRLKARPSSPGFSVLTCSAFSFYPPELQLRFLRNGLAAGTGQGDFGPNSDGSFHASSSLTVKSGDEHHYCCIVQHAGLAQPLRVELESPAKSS
T1 sequence (P61769 21-119 partner): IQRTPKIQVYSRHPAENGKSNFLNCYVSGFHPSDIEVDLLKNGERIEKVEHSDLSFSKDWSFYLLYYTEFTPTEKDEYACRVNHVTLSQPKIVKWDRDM
T2 sequence (P06213 28-758 limits assumed): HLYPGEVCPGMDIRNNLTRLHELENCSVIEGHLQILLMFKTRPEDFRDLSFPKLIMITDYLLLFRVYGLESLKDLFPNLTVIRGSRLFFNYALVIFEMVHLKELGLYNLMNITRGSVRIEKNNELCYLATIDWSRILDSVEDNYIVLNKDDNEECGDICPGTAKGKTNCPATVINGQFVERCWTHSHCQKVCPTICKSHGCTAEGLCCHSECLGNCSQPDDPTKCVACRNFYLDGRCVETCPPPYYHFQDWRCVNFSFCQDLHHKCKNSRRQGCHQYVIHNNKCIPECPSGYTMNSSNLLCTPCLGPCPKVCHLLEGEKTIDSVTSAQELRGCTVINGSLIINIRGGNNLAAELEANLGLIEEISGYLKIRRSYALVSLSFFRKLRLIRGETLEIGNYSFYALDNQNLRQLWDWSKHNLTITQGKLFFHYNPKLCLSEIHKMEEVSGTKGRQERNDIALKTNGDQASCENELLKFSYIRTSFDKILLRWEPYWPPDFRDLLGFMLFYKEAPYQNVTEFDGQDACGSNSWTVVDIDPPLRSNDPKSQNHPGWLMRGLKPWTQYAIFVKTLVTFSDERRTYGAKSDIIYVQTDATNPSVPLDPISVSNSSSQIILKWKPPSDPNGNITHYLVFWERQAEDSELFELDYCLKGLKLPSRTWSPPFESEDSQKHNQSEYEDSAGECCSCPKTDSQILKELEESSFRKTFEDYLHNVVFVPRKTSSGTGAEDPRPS
T2 sequence (P06213 763-1382 partner limits assumed): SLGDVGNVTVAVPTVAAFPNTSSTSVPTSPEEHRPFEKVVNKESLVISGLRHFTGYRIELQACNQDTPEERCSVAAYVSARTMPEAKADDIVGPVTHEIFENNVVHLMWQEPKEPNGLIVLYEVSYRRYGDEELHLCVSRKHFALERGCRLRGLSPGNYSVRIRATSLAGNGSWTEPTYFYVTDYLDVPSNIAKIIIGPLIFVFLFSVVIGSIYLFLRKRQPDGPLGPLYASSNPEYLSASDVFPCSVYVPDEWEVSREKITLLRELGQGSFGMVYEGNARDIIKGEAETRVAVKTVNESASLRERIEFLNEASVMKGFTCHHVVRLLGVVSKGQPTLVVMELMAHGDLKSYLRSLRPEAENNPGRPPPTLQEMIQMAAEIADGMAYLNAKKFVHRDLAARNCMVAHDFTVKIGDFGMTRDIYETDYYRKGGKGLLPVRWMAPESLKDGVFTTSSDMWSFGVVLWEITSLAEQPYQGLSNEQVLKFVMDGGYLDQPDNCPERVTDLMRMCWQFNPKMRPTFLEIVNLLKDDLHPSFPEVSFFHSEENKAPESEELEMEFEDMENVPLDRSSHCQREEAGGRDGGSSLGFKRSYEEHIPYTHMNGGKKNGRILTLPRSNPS

Row | Substance | AOCBG normal rat [1] | Lipogenesis Rel. pot. (%) (primary rat adipocytes) | Kd (hFcRn ectodomain) | hIR-B mem Rel. aff. (%) [2]
1 | (A14E, A21G, A22(GQEP)11, A66G, A67Q, A68E, A69K^, A70P, B16H, B25H, B29R, desB30 human insulin)/(226A, 227G, 228P, 234A, 235K, 297E, 315Q, 384Q, des447 hIgG4-Fc(226-447))3,5-bis[(2-acetyl)amino]benzoyl Conjugate [Example 5.2] | 364 mM·h | 1.14% | 1.6 µM | 1.26%
2 | (A14E, A21G, A22(GQEP)12, A70K^, A71P, B25H, B29R, desB30 human insulin)/(226A, 227G, 228P, 234A, 235K, 297E, 315Q, 384Q, des447 hIgG4-Fc(226-447))3,5-bis[(2-acetyl)amino]benzoyl Conjugate [Example 5.1] | 251 mM·h | 2.86% | 1.5 µM | 3.05%
